Values joined by “and” are separate entries in the source; they are usually repeats but may differ in a detail not shown here. Equal values may be shown once.
Tested on: phospho-IκBα (Ser32)
Assay: NanoBiT cell-based immunoassay, phosphorylated IκBα in MCF-7 cells
Parameters: species or system human
Conditions: for Fold change (TNF-treated /Non-treated): P-IkB; for P-IkB Average / Average: background subtracted
Method: Prior to NanoBiT Cell-Based Immunoassay, 50,000 cells were seeded in 160 µl of complete growth media per well of a 96-well plate and incubated overnight. The cells were checked under microscope and it was determined that 50,000 cells per well in 96-well plate is under 90% confluency for all cells tested. If necessary, the cell culture media were replaced with serum-free media after the cells were stably adherent on the plate and incubated overnight. To treat cells with activators or inhibitors, medium was changed to 30 µl of medium containing inhibitors. If activation of a specific pathway is needed, the cells were stimulated with 10 µl of medium containing activators. To lyse the cells, 10 µl of lysis buffer containing 0.1% digitonin diluted in 1X immunoassay buffer with protease and phosphatase inhibitors was added and the plates were mixed vigorously for 20 min. Then, 50 µl of an antibody mix containing two primary antibodies against the target protein and NanoBiT detecting antibodies (0.3 µl each per well), diluted in 1X immunoassay buffer was added to the lysates. The plates were incubated at 23 °C for 90 min, followed by the addition of 25 µl of Nano-Glo® reagent consisting of Nano-Glo® Luciferase Assay Substrate mixed with 1X immunoassay buffer. Luminescence was measured using a plate-reading luminometer.
In all, 50,000 MCF-7 cells were seeded in 160 µl complete growth medium per well of a 96-well plate and incubated overnight. Half of the cells were treated with 50 ng per ml TNFα and half with vehicle. Cells were lysed as described above and a mixture of NanoBiT secondary antibodies with primary antibodies at the matrix concentrations described in Fig. 2a were added. After 90 min incubation, the Nano-Glo® reagent was added to the reactions as described above and luminescence was measured using a plate-reading luminometer.
Single dose or dose response inhibitor treatments were performed prior to activation of the pathways as follows. For IκBα, the cells were treated in 30 µl medium with IKK16 or MG132 for 60 min before the addition of 10 µl of DMEM containing appropriate concentration of TNFα. To measure phosphorylation of AKT or STAT3, the corresponding NanoBiT immunoassays were developed with MCF-7 or A431 cells, respectively, according the same scheme used to develop the IκBα assay using the primary antibodies for AKT and STAT3 described in the reagents section. For the AKT assay, MCF-7 cells were incubated overnight in phenol-red free DMEM medium (Gibco #21063-029) without serum. Treatment with LY294002 was performed in 30 µl medium and cells were incubated for 60 min before the addition of 1 µM Insulin. To measure STAT3 phosphorylation, A431 cells were incubated overnight in DMEM medium without serum. […] After addition of the stimulators, the cells were incubated for additional times as follows. IκBα phosphorylation and degradation analyses required both time courses and single time points as described in figures. […] The NanoBiT immunoassay protocol was followed as described above.
All 96-well assay plates were read using a GloMax® 96 Microplate Luminometer from Promega. The instrument was set to 0.5 s integration time. In order to obtain net change of signal, the reagent background values (signal from the well containing all reagent except primary antibodies) were subtracted from the sample values. To plot and analyze the data, Microsoft Excel and GraphPad Prism® Software were used. IC50 values were determined by using a nonlinear regression fit to a sigmoidal dose response (variable slope).

[1] = Figure 2b, Ab incubation 5 min, listed as TNF
[2] = Figure 2b, Ab incubation 10 min, listed as TNF
[3] = Figure 2b, Ab incubation 60 min, listed as TNF
[4] = Figure 2b, Ab incubation 90 min, listed as TNF
[5] = Figure 2b, Ab incubation 120 min, listed as TNF
[6] = Figure 2b, Ab incubation 10 min
[7] = Figure 2b, Ab incubation 30 min
[8] = Figure 2b, Ab incubation 60 min
[9] = Figure 2b, Ab incubation 90 min
[10] = Figure 2b, Ab incubation 120 min
[11] = Figure 2c, Cell # 3500, listed as TNF
[12] = Figure 2c, Cell # 7000, listed as TNF
[13] = Figure 2c, Cell # 14000, listed as TNF
[14] = Figure 2c, Cell # 21000, listed as TNF
[15] = Figure 2c, Cell # 28000, listed as TNF
[16] = Figure 2c, Cell # 35000, listed as TNF
[17] = Figure 2c, Cell # 42000, listed as TNF
[18] = Figure 2c, Cell # 49000, listed as TNF
[19] = Figure 2c, Cell # 56000, listed as TNF
[20] = Figure 2c, Cell # 63000, listed as TNF
[21] = Figure 3a and 3b, listed as TNF
[22] = No MG132, TNF 2 min, listed as TNF
[23] = No MG132, TNF 4 min, listed as TNF
[24] = No MG132, TNF 10 min, listed as TNF
[25] = No MG132, TNF 12 min, listed as TNF
[26] = No MG132, TNF 15 min, listed as TNF
[27] = No MG132, TNF 30 min, listed as TNF
[28] = plate #1, IkB Ab #1 75 ng/ml, P-IkB Ab #1 75 ng/ml, TNF

For TNFα, the “P-IkB Raw data” value [1] was 13050, the “P-IkB Subtract reagent background” value [1] was 1653 and 2223 and 1733 and the “P-IkB Raw data” value [2] was 15430. For the same substance, the “P-IkB Subtract reagent background” value [2] was 4075 and 4145 and 2725, the “P-IkB Subtract reagent background” value (Figure 2b, Ab incubation 30 min, listed as TNF) was 11622 and 12702 and 12152 and the “P-IkB Raw data” value [3] was 35930. For the same substance, the “P-IkB Subtract reagent background” value [3] was 23000 and 23900 and 26790, the “P-IkB Raw data” value [4] was 44160 and the “P-IkB Subtract reagent background” value [4] was 32005 and 32085 and 32105. For the same substance, the “P-IkB Raw data” value [5] was 26480, the “P-IkB Subtract reagent background” value [5] was 19503 and 18993 and 21543 and the “Fold change (TNF-treated /Non-treated)” value (Figure 2b, Ab incubation 5 min) was -51. For the same substance, the “Fold change (TNF-treated /Non-treated)” value [6] was 25, the “Fold change (TNF-treated /Non-treated)” value [7] was 10 and the “Fold change (TNF-treated /Non-treated)” value [8] was 14. For the same substance, the “Fold change (TNF-treated /Non-treated)” value [9] was 13, the “Fold change (TNF-treated /Non-treated)” value [10] was 12 and the “P-IkB Average” value (Figure 2b, Ab incubation 5 min) was 1870. The “P-IkB Average” value [6] was 3648, the “P-IkB Average” value [7] was 12158 and the “P-IkB Average” value [8] was 24563. For the same substance, the “P-IkB Average” value [9] was 32065, the “P-IkB Average” value [10] was 20013 and the Raw data [11] was 19860 and 20790. For the same substance, the Subtract background [11] was 6010 and 6150, the Raw data [12] was 22450 and 23090 and the Subtract background [12] was 8600 and 8450. For the same substance, the Raw data [13] was 26500 and 26620, the Subtract background [13] was 12650 and 11980 and the Raw data [14] was 26350 and 27260. For the same substance, the Subtract background [14] was 12500 and 12620, the Raw data [15] was 29180 and 29230 and the Subtract background [15] was 15330 and 14590. The Raw data [16] was 32490 and 30000, the Subtract background [16] was 18640 and 15360 and the Raw data [17] was 35680 and 35010. The Subtract background [17] was 21830 and 20370, the Raw data [18] was 36150 and 38410 and the Subtract background [18] was 22300 and 23770. The Raw data [19] was 38800 and 38570, the Subtract background [19] was 24950 and 23930 and the Raw data [20] was 40840 and 40330. For the same substance, the Subtract background [20] was 26990 and 25690, the Average (Figure 2c, Cell # 3500) was 6080 and the Average (Figure 2c, Cell # 7000) was 8525. It also gave an Average (Figure 2c, Cell # 14000) of 12315, an Average (Figure 2c, Cell # 21000) of 12560 and an Average (Figure 2c, Cell # 28000) of 14960. For the same substance, the Average (Figure 2c, Cell # 35000) was 17000, the Average (Figure 2c, Cell # 42000) was 21100 and the Average (Figure 2c, Cell # 49000) was 23035. The Average (Figure 2c, Cell # 56000) was 24440, the Average (Figure 2c, Cell # 63000) was 26340 and the “P-IkB Average” value (Figure 3a and 3b) was 18603. The “P-IkB Raw data” value [21] was 40970 and 39480 and 37340, the “P-IkB Subtract reagent background” value [21] was 20310 and 18820 and 16680 and the “P-IkB Average” value (No MG132, TNF 2 min) was 1340. The “P-IkB Raw data” value [22] was 17500 and 17960 and 17760 and 18420, the “P-IkB Subtract reagent background” value [22] was 930 and 1390 and 1190 and 1850 and the “P-IkB Average” value (No MG132, TNF 4 min) was 2908. The “P-IkB Raw data” value [23] was 18550 and 18960 and 19930 and 20470, the “P-IkB Subtract reagent background” value [23] was 1980 and 2390 and 3360 and 3900 and the “P-IkB Average” value (No MG132, TNF 6 min) was 9185. The “P-IkB Raw data” value (No MG132, TNF 6 min, listed as TNF) was 21700 and 24830 and 27800 and 28690, the “P-IkB Average” value (No MG132, TNF 8 min) was 17540 and the “P-IkB Raw data” value (No MG132, TNF 8 min, listed as TNF) was 27040 and 33390 and 37550 and 38460. For the same substance, the “P-IkB Average” value (No MG132, TNF 10 min) was 21585, the “P-IkB Raw data” value [24] was 32290 and 37160 and 40510 and 42660 and the “P-IkB Subtract reagent background” value [24] was 15720 and 20590 and 23940 and 26090. For the same substance, the “P-IkB Average” value (No MG132, TNF 12 min) was 19345, the “P-IkB Raw data” value [25] was 33820 and 35920 and 37120 and 36800 and the “P-IkB Subtract reagent background” value [25] was 17250 and 19350 and 20550 and 20230. For the same substance, the “P-IkB Average” value (No MG132, TNF 15 min) was 13560, the “P-IkB Raw data” value [26] was 29860 and 30140 and 30400 and 30120 and the “P-IkB Subtract reagent background” value [26] was 13290 and 13570 and 13830 and 13550. For the same substance, the “P-IkB Average” value (No MG132, TNF 30 min) was 3855, the “P-IkB Raw data” value [27] was 20170 and 19970 and 20370 and 21190 and the “P-IkB Subtract reagent background” value [27] was 3600 and 3400 and 3800 and 4620. For the same substance, the Raw data [28] was 32920 and the Subtract reagent background [28] was 14010.
